From patent US20070191267A1, “Use of tyrosine kinase inhibitors for treating cerebral ischemia” (AB SCIENCE, priority 2003, published 2007)

Legend:
c-kit = target: T1, c-kit (Homo sapiens, UniProt P10721); experiment: In vitro TK inhibition assay (ELISA, phosphorylation of tyrosine containing target peptide); format: biochemical; conditions: purified intracellular domain of c-kit expressed in baculovirus
T1 construct: purified intracellular domain of c-kit expressed in baculovirus; made in house
Protocol: in Vitro TK Inhibition Assays
Experiments were performed using purified intracellular domain of c-kit expressed in baculovirus. Estimation of the kinase activity was assessed by the phosphorylation of tyrosine containing target peptide estimated by established ELISA assay.

T1 sequence (P10721 546-976 limits assumed): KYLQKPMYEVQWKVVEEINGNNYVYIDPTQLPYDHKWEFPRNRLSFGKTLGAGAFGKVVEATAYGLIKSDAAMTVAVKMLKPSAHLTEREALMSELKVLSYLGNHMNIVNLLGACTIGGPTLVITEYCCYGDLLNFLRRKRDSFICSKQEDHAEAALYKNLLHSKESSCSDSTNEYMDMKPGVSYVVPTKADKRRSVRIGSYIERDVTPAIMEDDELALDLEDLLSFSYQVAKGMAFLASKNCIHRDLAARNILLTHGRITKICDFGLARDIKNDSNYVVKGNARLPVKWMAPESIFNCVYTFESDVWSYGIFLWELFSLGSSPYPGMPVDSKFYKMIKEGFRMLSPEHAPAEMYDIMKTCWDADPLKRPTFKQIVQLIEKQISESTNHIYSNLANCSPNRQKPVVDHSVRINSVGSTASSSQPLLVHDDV

Row | SMILES | IC50 (c-kit) | melting point
1 | Cc1ccc(NC(=O)Nc2ccccc2F)cc1Nc1nc(-c2cccnc2)cs1 [Compound 023, 1-(2-Fluoro-phenyl)-3-[4-methyl-3-(4-pyridin-3-yl-thiazol-2-ylamino)-phenyl]-urea] | < 10 µM | 203 to 206 °C
2 | Cc1ccc(NC(=O)Nc2cccc(F)c2)cc1Nc1nc(-c2cccnc2)cs1 [Compound 025, 1-(3-Fluoro-phenyl)-3-[4-methyl-3-(4-pyridin-3-yl-thiazol-2-ylamino)-phenyl]-urea] | – | 210 to 215 °C
3 | Cc1ccc(NC(=O)Nc2ccc(C)c(Nc3nc(-c4cccnc4)cs3)c2)cc1 [Compound 026, 3-[4-Methyl-3-(4-pyridin-3-yl-thiazol-2-ylamino)-phenyl]-3-p-tolyl-urea] | – | 238 to 240 °C
4 | Cc1ccc(NC(=O)c2ccc(NS(=O)(=O)c3cccs3)cc2)cc1Nc1nc(-c2cccnc2)cs1 [Compound 044, N-[4-Methyl-3-(4-pyridin-3-yl-thiazol-2-ylamino)-phenyl]-4-(thiophene-2-sulfonylamino)-benzamide] | – | 230 to 233 °C
5 | Cc1ccc(NC(=O)c2cccc(F)c2)cc1Nc1nc(-c2cccnc2)cs1 [Compound 045, 3-Fluoro-N-[4-methyl-3-(4-pyridin-3-yl-thiazol-2-ylamino)-phenyl]-benzamide] | – | 184 to 186 °C
6 | Cc1ccc(NC(=O)c2ccc(-c3ccncc3)cc2)cc1Nc1nc(-c2cccnc2)cs1 [Compound 046, N-[4-Methyl-3-(4-pyridin-3-yl-thiazol-2-ylamino)-phenyl]-4-pyridin-4-yl-benzamide] | – | 254 to 256 °C
7 | Cc1ccc(NC(=O)c2ccc(N(C)C)cc2)cc1Nc1nc(-c2cccnc2)cs1 [Compound 047, 4-Dimethylamino-N-[4-methyl-3-(4-pyridin-3-yl-thiazol-2-ylamino)-phenyl]-benzamide] | – | 147 to 150 °C
8 | Cc1ccc(F)c(C(=O)Nc2ccc(C)c(Nc3nc(-c4cccnc4)cs3)c2)c1 [Compound 048, 2-Fluoro-5-methyl-N-[4-methyl-3-(4-pyridin-3-yl-thiazol-2-ylamino)-phenyl]-benzamide] | – | 103 to 106 °C
9 | Cc1ccc(NC(=O)c2ccc(C(C)(C)C)cc2)cc1Nc1nc(-c2cccnc2)cs1 [Compound 049, 4-tert-Butyl-N-[4-methyl-3-(4-pyridin-3-yl-thiazol-2-ylamino)-phenyl]-benzamide] | – | 145 to 150 °C
10 | Cc1ccc(NC(=O)c2cccc(OCCN3CCOCC3)c2)cc1Nc1nc(-c2cccnc2)cs1 [Compound 052, N-[4-Methyl-3-(4-pyridin-3-yl-thiazol-2-ylamino)-phenyl]-3-(2-morpholin-4-yl-ethoxy)-benzamide] | – | 75 to 80 °C
11 | Cc1ccc(NC(=O)c2ccc(-c3ccncc3)cc2)cc1Nc1nc(-c2cccnc2)cs1 [Compound 053] | < 10 µM | –
12 | Cc1ccc(NC(=O)c2cccc(C(F)(F)F)c2F)cc1Nc1nc(-c2cccnc2)cs1 [Compound 055, 2-Fluoro-N-[4-methyl-3-(4-pyridin-3-yl-thiazol-2-ylamino)-phenyl]-3-trifluoromethyl-benzamide] | < 10 µM | –
13 | Cc1ccc(NC(=O)c2ccc(CN3CCN(C)CC3)c(F)c2)cc1Nc1nc(-c2cccnc2)cs1 [Compound 074, 3-Fluoro-4-(4-methyl-piperazin-1-ylmethyl)-N-[4-methyl-3-(4-pyridin-3-yl-thiazol-2-ylarnino)-phenyl]-benzamide] | < 10 µM | –
14 | Cc1ccc(NC(=O)c2cccc(N(C)C)c2)cc1Nc1nc(-c2cccnc2)cs1 [Compound 088, 3-Dimethylamino-N-[4-methyl-3-(4-pyridin-3-yl-thiazol-2-ylamino)-phenyl]-benzamide] | – | 197 to 198 °C
15 | Cc1ccc(NC(=O)c2cccc(N3CCOCC3)c2)cc1Nc1nc(-c2cccnc2)cs1 [Compound 090, N-[4-Methyl-3-(4-pyridin-3-yl-thiazol-2-ylamino)-phenyl]-3-morpholin-4-yl-benzamid] | – | 247 to 248 °C
16 | Cc1ccc(NC(=O)CCCN2CCOCC2)cc1Nc1nc(-c2cccnc2)cs1 [Compound 096, N-[4-Methyl-3-(4-pyridin-3-yl-thiazol-2-ylamtino)-phenyl]-4-morpholin-4-yl-butyramide] | – | 116 to 120 °C
